Results: ChEMBL document CHEMBL1130921, “The cholesterol metabolite cholest-4-en-3-one and its 3-oxo derivatives suppress body weight gain, body fat accumulation and serum lipid concentration in mice” (Bioorg Med Chem Lett, 1998)

Legend:
Mus musculus [1] = species: Mus musculus; assay: Evaluated for potency in CDF1 mice and the inhibition of body weight gain was determined; type: functional
Mus musculus [2] = species: Mus musculus; assay: Compound was evaluated for its potency in CDF1 mice and the serum triglyceride levels were determined; type: ADME, organism-based
Mus musculus [3] = species: Mus musculus; assay: Compound was evaluated for its potency in CDF1 mice and the serum cholesterol levels were determined; type: ADME, organism-based
Mus musculus [4] = species: Mus musculus; assay: Evaluated for potency in CDF1 mice and the ability of it to decrease feed consumption was determined; type: functional
Mus musculus [5] = species: Mus musculus; assay: Compound was evaluated for its potency in CDF1 mice and the serum metabolite levels were determined; type: ADME, organism-based
Mus musculus [6] = species: Mus musculus; assay: Feed efficiency was calculated by dividing body weight gain by feed consumption in mouse; type: functional
Mus musculus [7] = species: Mus musculus; assay: Compound was evaluated for its potency in CDF1 mice and the abdominal fat weight was determined.; type: functional, Abdomen
Mus musculus [8] = species: Mus musculus; assay: Compound was evaluated for its potency in CDF1 mice and the abdominal fat weight was determined; type: functional, Abdomen

| Compound | Body weight gain (Mus musculus [1]) [g/day] | Serum triglyceride (Mus musculus [2]) [mg/dL] | Serum cholesterol (Mus musculus [3]) [mg/dL] | Feed consumption (Mus musculus [4]) [g/day] | Serum metabolite (Mus musculus [5]) [mg/dL] | Feed efficiency (Mus musculus [6]) | Abdominal fat (Mus musculus [7]) [g] | Abdominal fat (Mus musculus [8]) [g] |
| --- | --- | --- | --- | --- | --- | --- | --- | --- |
| CC(C)CCC[C@@H](C)[C@H]1CC[C@H]2[C@@H]3C=CC4=CC(=O)C=C[C@]4(C)[C@H]3CC[C@]12C | 0.27 | 390.4 | 206.3 | 5.41 | 0 | 0.05 | – | – |
| CC(C)CCC[C@@H](C)[C@H]1CC[C@H]2[C@@H]3C[C@@H](O)C4=CC(=O)CC[C@]4(C)[C@H]3CC[C@]12C | 0.28 | 120 | 136.7 | 5.7 | 0 | 0.05 | 0.8 | – |
| CCCCCCCCC(=O)OC1CC[C@@]2(C)C(=CC[C@H]3[C@@H]4CC[C@H]([C@H](C)CCCC(C)C)[C@@]4(C)CC[C@@H]32)C1 (some centres undefined) | 0.52 | – | – | 5.28 | – | 0.1 | – | – |
| CC(C)CCC[C@@H](C)[C@H]1CC[C@H]2[C@@H]3CC(=O)C4=CC(=O)CC[C@]4(C)[C@H]3CC[C@]12C | -0.36 | 133.6 | 110 | 6 | 0 | -0.06 | 0.3 | – |
| CC(C)CCC[C@@H](C)[C@H]1CC[C@H]2[C@@H]3CC=C4C=C(N5CCCC5)CC[C@]4(C)[C@H]3CC[C@]12C | -0.18 | 277.7 | 158.1 | 6.1 | 22 | -0.03 | 0.41 | – |
| CC[C@H](CC[C@@H](C)[C@H]1CC[C@H]2[C@@H]3CCC4CC(O)CC[C@]4(C)[C@H]3CC[C@]12C)C(C)C (some centres undefined) | 0.49 | – | – | 5.43 | – | 0.09 | – | – |
| CC(C)CCC[C@@H](C)[C@H]1CC[C@H]2[C@@H]3C[C@H](O)[C@]4(O)CC(=O)CC[C@]4(C)[C@H]3CC[C@]12C | 0.58 | – | – | 5.39 | – | 0.11 | – | – |
| CC[C@H](/C=C/[C@@H](C)[C@H]1CC[C@H]2[C@@H]3CC=C4CC(=O)CC[C@]4(C)[C@H]3CC[C@]12C)C(C)C | 0.52 | – | – | 6.37 | – | 0.08 | – | – |
| CC(C)CCC[C@@H](C)[C@H]1CC[C@H]2[C@@H]3CC[C@H]4CC(O)CC[C@]4(C)[C@H]3CC[C@]12C (some centres undefined) | 0.38 | 212.7 | 148.1 | 5.45 | 23 | 0.07 | 0.9 | – |
| CC(C)CCC[C@@H](C)[C@H]1CC[C@H]2[C@@H]3CC=C4CC(OC(=O)c5ccccc5)CC[C@]4(C)[C@H]3CC[C@]12C (some centres undefined) | 0.46 | – | – | 5.57 | – | 0.08 | – | – |
| CC(C)CCC[C@@H](C)[C@H]1CC[C@H]2[C@@H]3CC[C@@]45O[C@@H]4C(=O)CC[C@]5(C)[C@H]3CC[C@]12C | 0.46 | 218 | 141.6 | 6.14 | 0 | 0.08 | 1.12 | – |
| CC(=O)OC1=CC2=CC[C@H]3[C@@H]4CC[C@H]([C@H](C)CCCC(C)C)[C@@]4(C)CC[C@@H]3[C@@]2(C)CC1 | 0.33 | 119.9 | 187.5 | 5.64 | 22 | 0.06 | 1.03 | – |
| CC(C)CCC[C@@H](C)[C@H]1CC[C@H]2[C@@H]3CCC4=C(CSc5ccccc5)C(=O)CC[C@]4(C)[C@H]3CC[C@]12C | 0.56 | – | – | 6.23 | – | 0.09 | – | – |
| CC[C@H](CC[C@@H](C)[C@H]1CC[C@H]2[C@@H]3CCC4=CC(=O)CC[C@]4(C)[C@H]3CC[C@]12C)C(C)C | 0.4 | 188.3 | 164.6 | 4.94 | 0 | 0.08 | 1 | – |
| CC[C@H](/C=C/[C@@H](C)[C@H]1CC[C@H]2[C@@H]3CC=C4CC(O)CC[C@]4(C)[C@H]3CC[C@]12C)C(C)C (some centres undefined) | 0.57 | – | – | 6.3 | – | 0.09 | – | – |
| CC(C)CCC[C@@H](C)[C@H]1CC[C@H]2[C@@H]3C=CC4=CC(=O)CC[C@]4(C)[C@H]3CC[C@]12C | 0.32 | 172.6 | 112.7 | 4.71 | 22 | 0.07 | 0.9 | – |
| CC(=O)OC1CC[C@@]2(C)C(=CC[C@H]3[C@@H]4CC[C@H]([C@H](C)CCCC(C)C)[C@@]4(C)CC[C@@H]32)C1 (some centres undefined) | 0.52 | – | – | 5.28 | – | 0.1 | – | – |
| CC(C)CCC[C@@H](C)[C@H]1CC[C@H]2[C@@H]3CC=C4CCCC[C@]4(C)[C@H]3CC[C@]12C | 0.56 | 253.6 | 165.8 | 6.95 | 0 | 0.08 | – | – |
| CC(C)CCC[C@@H](C)[C@H]1CC[C@H]2[C@@H]3CCC4C[C@@H](O)CC[C@]4(C)[C@H]3CC[C@]12C (some centres undefined) | 0.52 | – | – | 5.83 | – | 0.09 | – | – |
| CC(C)CCC[C@@H](C)[C@H]1CC[C@H]2[C@@H]3CCC4CC(O)CC[C@]4(C)[C@H]3CC[C@]12C (some centres undefined) | 0.58 | – | – | 6.48 | – | 0.09 | – | – |
| CC(C)CCC[C@@H](C)[C@H]1CC[C@H]2[C@@H]3CC[C@@H]4CC(=O)CC[C@]4(C)[C@H]3CC[C@]12C | 0.5 | 291.2 | 161.3 | 5.39 | 22 | 0.09 | 1.25 | – |
| CC(C)CCC[C@@H](C)[C@H]1CC[C@H]2[C@@H]3C[C@H](Br)[C@]4(Br)CC(=O)CC[C@]4(C)[C@H]3CC[C@]12C | 0.43 | – | – | 5.72 | – | 0.08 | – | – |
| CC(C)CCC[C@@H](C)[C@H]1CC[C@H]2[C@@H]3CCC4=C(Br)C(=O)CC[C@]4(C)[C@H]3CC[C@]12C | 0.52 | – | – | 6.58 | – | 0.08 | – | – |
| CC(C)CCC[C@@H](C)[C@H]1CC[C@H]2[C@@H]3CC[C@@H]4CC(O)CC[C@]4(C)[C@H]3CC[C@]12C (some centres undefined) | 0.55 | – | – | 6.1 | – | 0.09 | – | – |
| CC(C)CCC[C@@H](C)[C@H]1CC[C@H]2[C@@H]3CCC4=CC(=O)C=C[C@]4(C)[C@H]3CC[C@]12C | 0.15 | 266.9 | 165.4 | 4.94 | 0 | 0.03 | 0.61 | – |
| CC(C)CCC[C@@H](C)[C@H]1CC[C@H]2[C@@H]3C[C@H](Br)C4=CC(=O)CC[C@]4(C)[C@H]3CC[C@]12C | 0.26 | 257.3 | 176.8 | 4.2 | 22 | 0.06 | 0.81 | – |
| CC(C)CCC[C@@H](C)[C@H]1CC[C@H]2[C@@H]3CCC4=CC(=O)CC[C@]4(C)[C@H]3CC[C@]12C [4-CHOLESTEN 3-ONE] | 0.35 | 218.3 | 115.8 | 5.43 | 22 | 0.06 | – | 0.68 |
| CC(C)CCC[C@@H](C)[C@H]1CC[C@H]2[C@@H]3CC=C4CC(=O)CC[C@]4(C)[C@H]3CC[C@]12C [CHOLEST-5-EN-3-ONE] | -0.1 | 87.5 | 122.1 | 3.62 | 0 | 0.03 | 0.48 | – |
| CC(C)CCC[C@@H](C)[C@H]1CC[C@H]2[C@@H]3CC[C@H]4CC(=O)CC[C@]4(C)[C@H]3CC[C@]12C [CHOLESTAN-3-ONE] | 0.28 | 201.7 | 134.1 | 4.6 | 23 | 0.06 | 0.92 | – |
